Broadly, the Tmax is the time from dosing to the highest level. Usually IC50 stands for the midpoint of a concentration-inhibition curve.

Several values for one entry are separate records, joined by “and”; a condition that tells them apart may be missing. Equal values may be shown once. Read-outs that look alike come from different tables or passages of the source.

One compound from US20110224240A1 (Myrexis, Inc., priority 2010, published 2011) can be followed below.

For data set [1], the system named is A549 cells. Nature of the data set: Microtubule formation in A549 cells (FIG. 1). The format is cell-based. As to conditions: 100 nM, 1 μM, 10 μM. How it is done:
FIG. 1 depicts the extent of microtubule formation in A549 cells treated with (2-aminomethylquinazolin-4-yl)-(4-methoxyphenyl)methylamine (“Compound 1”). The cells in panel “a” were treated with 100 nM concentration of Compound 1. The cells in panel “b” were treated with 1 μM concentration of Compound 1. The cells in panel “c” were treated with 10 μM concentration of Compound 1.
FIG. 1 depicts the extent of microtubule formation in A549 cells treated with Compound 1. The cells in panel “a” were treated with 100 nM concentration of Compound 1. The cells in panel “b” were treated with 1 μM concentration of Compound 1. The cells in panel “c” were treated with 10 μM concentration of Compound 1.

Data set [2] in a line: Pharmacokinetic study in mice, brain. The format is in vivo. How it is done: Animals were dosed with approximately 2.5 mg/kg i.v. in the tail vein or 5, 10, 30, or 60 mg/kg p.o. in fed and 60 mg/kg p.o. in a fasted state. Blood samples and whole brains were collected from five mice at each of the […] collection time points (approximately 0.05, 0.25, 1.0, 2.0, 4.0, 8.0, 12.0 and 24.0 hours) after administration of the dose. Plasma was collected from blood samples, and whole brain sample were homoginized. Both tissues were analyzed for the concentration of Compound 1. Pharmacokinetic parameters were estimated by non-compartmental analysis using WinNonlin.

The subject of data set [3] is P388. Nature of the data set: Multidrug resistant cell assay, cytotoxicity. It is filed as cell-based, murine. As to conditions: Mus musculus, P388, 72 h, read-out: Various MDR Cell Line Cytotoxicity IC50.
Data set [4] relates to NCI/ADR-Res (MDR-1). Nature of the data set: Multidrug resistant cell assay, cytotoxicity. The following applies: 72 h, read-out: Various MDR Cell Line Cytotoxicity IC50.
For data set [5], the system named is OVCAR-3. Kind of data set: 72 hour cytotoxicity, ATP-Lite cell viability. The format is cell-based. The following applies: Homo sapiens, OVCAR-3, Ovarian, read-out: 72 Hour Cytotoxicity (IC50, nM ± SD). How it is done:
(§1) A P388 murine leukemia cell line was obtained from NCI, Frederick, Md. P388 cells were cultured in RPMI-1640 supplemented with 10% fetal bovine serum, 2 mM Glutamax, 1 mM sodium pyruvate, 0.1 mM non-essential amino acids and 10 mM HEPES. Cells were grown at 37° C. in a humidified 5% CO2 atmosphere. Exponentially growing P388 cells were plated at 5,000 cells/well in a 96-well flat-bottomed microtiter plate (Corning, Costar #3595, Lowell, Mass.). Twenty-four hours later, test compound was added to cells at final concentrations of 100 nM, 33.3 nM, 11.1 nM, 3.7 nM, 1.23 nM, 0.4 nM and 0.13 nM. Cellular viability was determined 72 hours later by measuring intracellular ATP with ATP-Lite assay system. The effect of compounds on cell viability was calculated by comparing the ATP levels of cells exposed to test compound with those of cells exposed to DMSO. A semi-log plot of relative ATP levels versus compound concentration was used to calculate the compound concentration required to inhibit growth by 50% (IC50). Data was analyzed by Prism software (GraphPad; San Diego, Calif.) by fitting it to a sigmoidal dose response curve.
(§2) A similar procedure was followed with six other cell lines and the results are shown in Table 1: HT-29, HCT-116, A549, OVCAR-3, MIAPaCa-2, and B16F1.

The subject of data set [6] is HCT-116. Kind of data set: 72 hour cytotoxicity, ATP-Lite cell viability. It is filed as cell-based. As to conditions: Homo sapiens, HCT-116, Colorectal Carcinoma, read-out: 72 Hour Cytotoxicity (IC50, nM ± SD). How it is done:
as §1, §2

Data set [7] relates to A549. Nature of the data set: 72 hour cytotoxicity, ATP-Lite cell viability. It is filed as cell-based. The following applies: Homo sapiens, A549, Lung, read-out: 72 Hour Cytotoxicity (IC50, nM ± SD). How it is done:
as §1, §2

The subject of data set [8] is B16F1. Kind of data set: 72 hour cytotoxicity, ATP-Lite cell viability. The format is cell-based. As to conditions: Mus musculus, B16-F1, B16F1, Melanoma, read-out: 72 Hour Cytotoxicity (IC50, nM ± SD). How it is done: as §1, §2
Data set [9] concerns MIAPaCa-2. Kind of data set: 72 hour cytotoxicity, ATP-Lite cell viability. The following applies: Homo sapiens, MIA PaCa-2, MIAPaCa-2, Pancreatic, read-out: 72 Hour Cytotoxicity (IC50, nM ± SD). It is filed as cell-based. The method, then:
as §1, §2

For data set [10], the system named is HT-29. Kind of data set: 72 hour cytotoxicity, ATP-Lite cell viability. The format is cell-based. The following applies: Homo sapiens, HT-29, Colorectal, read-out: 72 Hour Cytotoxicity (IC50, nM ± SD). The method, then: as §1, §2

Regarding `COc1ccc(N(C)c2nc(CN)nc3ccccc23)cc1` [Compound 1], the microtubule formation entry in data set [1] is recorded as “inhibits microtubule formation”. Besides, the Kp was roughly 7 in data set [2] (Swiss Webster, mouse, brain, other: oral or intravenous, after oral or intravenous dosing, read-out: exposure in the brain relative to that in the plasma) and roughly 7 in data set [2] (mouse, brain, po, Swiss Webster mice, single 60 mg/kg p.o. dose, read-out: Brain concentrations relative to plasma levels (AUC0-∞)). Besides, the Tmax in [2] (Swiss Webster, mouse, brain, mice, Not Fasted, PO, 60 mg/kg) worked out at 2 h. For the same compound, the half-life in data set [2] (Swiss Webster, mouse, brain, mice, Not Fasted, PO, 60 mg/kg, read-out: Brain t½ (converted)) is 9 h. Besides, the “Brain AUC(0-inf)” value in [2] (mice, Not Fasted, PO, 60 mg/kg) came out at 77290 ng·h/mL. Moreover, the “Brain CL” value in data set [2] (mice, Not Fasted, PO, 60 mg/kg) amounted to 12.9 mL/min/kg. The “Brain Cmax” value in data set [2] (mice, Not Fasted, PO, 60 mg/kg) was 6030 ng/mL and 20.4 μM. In addition, the “Brain V” value in [2] (mice, Not Fasted, PO, 60 mg/kg) was 10.109 L/kg. Besides, the IC50 was 18 nM in [3]; 13 nM in data set [4]; 29 ± 20.1 nM in [5]; 7.6 ± 1.9 nM in data set [6]; 54 nM in [7]; 37 nM in [8]. Further, the IC50 in [9] was 56 nM; in data set [10], 29 ± 2 nM.
